Experimental data published in patent US20090087389A1, “DEHYDROEPIAN[…] DIHYDRATE INHALATION COMPOSITIONS AND METHODS” ([…] PHARMACEUTICALS, LLC., priority 2002, published 2009).

How the values were obtained:
[1] = solid state; cited from earlier work
[2] = Stability at 50° C. with and without lactose (DHEA formation by HPLC); assay type: physicochemical; conditions: 1 week at 50° C.
From the text: These conditions were used to stress the formulation in order to predict its long-term stability results.
The primary degradant is dehydroepiandrosterone or DHEA. […] The materials on accelerated storage become more cohesive with time as evidenced by clumping during sample weighing for chemical analysis. […] This is a considerable disadvantage since lactose is the most commonly used inhalation excipient for dry powder formulations. Continuing with the virtually anhydrous form would mean limiting formulations to neat powder or undertaking more comprehensive safety studies to use a novel excipient.

[3] = Nebulizer studies (Pari ProNeb Ultra / LC Plus, AS-6 impactor, by-pass collector); conditions: 0.12% NaCl; no precipitate during nebulization
Protocol: Nebulizer Studies. […] The nebulizer is filled with 5 mL of solution and nebulization is continued until the output became visually insignificant (4½ to 5 min.). Nebulizer solutions are tested using a California Instruments AS-6 6-stage impactor with a USP throat. The impactor is run at 30 L/min for 8 seconds to collect a sample following one minute of nebulization time. At all other times during the experiment, the aerosol is drawn through the by-pass collector at approximately 33 L/min. The collection apparatus, nebulizer, and impactor are rinsed with mobile phase and assayed by HPLC. […] This volume is selected as the practical upper limit for use in a clinical study.

## C[C@]12CC[C@H](OS(=O)(=O)[O-])CC1=CC[C@@H]1[C@@H]2CC[C@]2(C)C(=O)CC[C@@H]12.[Na+] [Anhydrous DHEA-S]
[1]
  hygroscopicity: very hygroscopic

## CC12CCC3C(CC=C4CC(OS(=O)(=O)[O-])CCC43C)C1CCC2=O.[Na+] (stereo not drawn) [DHEA-S dihydrate, dehydroepiandrosterone sodium sulfate dihydrate]
[2]
  color after storage: no change in color

## C[C@]12CC[C@H](OS(=O)(=O)[O-])CC1=CC[C@@H]1[C@@H]2CC[C@]2(C)C(=O)CC[C@@H]12.[Na+] [DHEA-S, sodium dehydroepiandrostenone sulfate]
[3]
  highest solution concentration for a proof of concept clinical trial formulation: approximately 7.5 mg/mL
